Reference: patent US7141570B2, “N-aryl-2-oxazolidinone-5-carboxamides and their derivatives” (Pharmacia & Upjohn Company, priority 2002, dated 2006)
In brackets after ≈: the same amount, converted by molar mass.

These molecules were tested on E. Faecalis (EFAE 9217) (assay: MIC, agar dilution). Conditions: Enterococcus faecalis, E. Faecalis 9217, overnight at 35° C.
Type: cell-based
Procedure: (§1) The in vitro MICs of test compounds were determined by a standard agar dilution method. A stock drug solution of each analog was prepared in the preferred solvent, usually DMSO:H2O (1:3). Serial 2-fold dilutions of each sample are made using 1.0 ml aliquots of sterile distilled water. To each 1.0 ml aliquot of drug was added 9 ml of molten Mueller Hinton agar medium. The drug-supplemented agar was mixed, poured into 15×100 mm petri dishes, and allowed to solidify and dry prior to inoculation.
(§2) Vials of each of the test organisms are maintained frozen in the vapor phase of a liquid nitrogen freezer. Test cultures are grown overnight at 35° C. on the medium appropriate for the organism. Colonies are harvested with a sterile swab, and cell suspensions are prepared in Trypticase Soy broth (TSB) to equal the turbidity of a 0.5 McFarland standard. A 1:20 dilution of each suspension was made in TSB. The plates containing the drug supplemented agar are inoculated with a 0.001 ml drop of the cell suspension using a Steers replicator, yielding approximately 10^4 to 10^5 cells per spot. The plates are incubated overnight at 35° C.
(§3) Following incubation the Minimum Inhibitory Concentration (MIC μg/ml), the lowest concentration of drug that inhibits visible growth of the organism, was read and recorded.

| MIC [µg/mL] | SMILES |
| --- | --- |
| 8 (≈ 15.2 µM) | CC(=O)NC[C@H]1CN(c2ccc(N3CCN(C(=O)COc4ccc(CN(C)C)cc4)CC3)c(F)c2)C(=O)O1 [Compound 14] |
| 1 (≈ 1.67 µM) | CCC(=S)NC[C@H]1CN(c2ccc(N3CCN(C(=O)COc4ccc(CN5CCOCC5)cc4)CC3)c(F)c2)C(=O)O1 [Compound 17] |
| 1 (≈ 1.63 µM) | O=C(COc1ccc(CN2CCOCC2)cc1)N1CCN(c2ccc(N3C[C@H](CNC(=S)C4CC4)OC3=O)cc2F)CC1 [Compound 18] |
| 4 (≈ 7.02 µM) | CC(=O)NC[C@H]1CN(c2ccc(N3CCN(C(=O)COc4ccc(CN5CCOCC5)cc4)CC3)c(F)c2)C(=O)O1 [Compound 19] |

What follows are molecules tested on S. pyogenes (SPYO 152) (assay: MIC, agar dilution). Conditions: Streptococcus pyogenes, S. pyogenes 152, overnight at 35° C.
Type: cell-based
Procedure: as §1, §2, §3

| MIC [µg/mL] | SMILES |
| --- | --- |
| 0.5 (≈ 0.948 µM) | CC(=O)NC[C@H]1CN(c2ccc(N3CCN(C(=O)COc4ccc(CN(C)C)cc4)CC3)c(F)c2)C(=O)O1 [Compound 14] |
| 0.5 (≈ 0.834 µM) | CCC(=S)NC[C@H]1CN(c2ccc(N3CCN(C(=O)COc4ccc(CN5CCOCC5)cc4)CC3)c(F)c2)C(=O)O1 [Compound 17] |
| 0.25 (≈ 0.409 µM) | O=C(COc1ccc(CN2CCOCC2)cc1)N1CCN(c2ccc(N3C[C@H](CNC(=S)C4CC4)OC3=O)cc2F)CC1 [Compound 18] |
| 1 (≈ 1.76 µM) | CC(=O)NC[C@H]1CN(c2ccc(N3CCN(C(=O)COc4ccc(CN5CCOCC5)cc4)CC3)c(F)c2)C(=O)O1 [Compound 19] |

These molecules were tested on H. influenzae (HINF 30063) (assay: MIC, agar dilution). Conditions: Haemophilus influenzae, H. influenzae 30063, overnight at 35° C.
Type: cell-based
Procedure: as §1, §2, §3

| MIC [µg/mL] | SMILES |
| --- | --- |
| 64 (≈ 121 µM) | CC(=O)NC[C@H]1CN(c2ccc(N3CCN(C(=O)COc4ccc(CN(C)C)cc4)CC3)c(F)c2)C(=O)O1 [Compound 14] |
| 64 (≈ 107 µM) | CCC(=S)NC[C@H]1CN(c2ccc(N3CCN(C(=O)COc4ccc(CN5CCOCC5)cc4)CC3)c(F)c2)C(=O)O1 [Compound 17] |
| 64 (≈ 105 µM) | O=C(COc1ccc(CN2CCOCC2)cc1)N1CCN(c2ccc(N3C[C@H](CNC(=S)C4CC4)OC3=O)cc2F)CC1 [Compound 18] |
| > 64 | CC(=O)NC[C@H]1CN(c2ccc(N3CCN(C(=O)COc4ccc(CN5CCOCC5)cc4)CC3)c(F)c2)C(=O)O1 [Compound 19] |

What follows are molecules tested on H. influenzae (HINF 31810) (assay: MIC, agar dilution). Conditions: Haemophilus influenzae, H. influenzae 31810, overnight at 35° C.
Type: cell-based
Procedure: as §1, §2, §3

| MIC [µg/mL] | SMILES |
| --- | --- |
| 32 (≈ 60.7 µM) | CC(=O)NC[C@H]1CN(c2ccc(N3CCN(C(=O)COc4ccc(CN(C)C)cc4)CC3)c(F)c2)C(=O)O1 [Compound 14] |
| 32 (≈ 53.4 µM) | CCC(=S)NC[C@H]1CN(c2ccc(N3CCN(C(=O)COc4ccc(CN5CCOCC5)cc4)CC3)c(F)c2)C(=O)O1 [Compound 17] |
| 32 (≈ 52.3 µM) | O=C(COc1ccc(CN2CCOCC2)cc1)N1CCN(c2ccc(N3C[C@H](CNC(=S)C4CC4)OC3=O)cc2F)CC1 [Compound 18] |
| 64 (≈ 112 µM) | CC(=O)NC[C@H]1CN(c2ccc(N3CCN(C(=O)COc4ccc(CN5CCOCC5)cc4)CC3)c(F)c2)C(=O)O1 [Compound 19] |

The molecules below were run on S. aureus (SAUR 31583) (assay: MIC, agar dilution). Conditions: Staphylococcus aureus, S. aureus 31583, overnight at 35° C.
Type: cell-based
Procedure: as §1, §2, §3

| MIC [µg/mL] | SMILES |
| --- | --- |
| > 64 | CC(=O)NC[C@H]1CN(c2ccc(N3CCN(C(=O)COc4ccc(CN(C)C)cc4)CC3)c(F)c2)C(=O)O1 [Compound 14] |
| 32 (≈ 53.4 µM) | CCC(=S)NC[C@H]1CN(c2ccc(N3CCN(C(=O)COc4ccc(CN5CCOCC5)cc4)CC3)c(F)c2)C(=O)O1 [Compound 17] |
| 16 (≈ 26.2 µM) | O=C(COc1ccc(CN2CCOCC2)cc1)N1CCN(c2ccc(N3C[C@H](CNC(=S)C4CC4)OC3=O)cc2F)CC1 [Compound 18] |
| > 64 | CC(=O)NC[C@H]1CN(c2ccc(N3CCN(C(=O)COc4ccc(CN5CCOCC5)cc4)CC3)c(F)c2)C(=O)O1 [Compound 19] |

What follows are molecules tested on S. aureus (SAUR 9213) (assay: MIC, agar dilution). Conditions: Staphylococcus aureus, S. aureus 9213, overnight at 35° C.
Type: cell-based
Procedure: as §1, §2, §3

| MIC [µg/mL] | SMILES |
| --- | --- |
| 16 (≈ 30.3 µM) | CC(=O)NC[C@H]1CN(c2ccc(N3CCN(C(=O)COc4ccc(CN(C)C)cc4)CC3)c(F)c2)C(=O)O1 [Compound 14] |
| 8 (≈ 13.3 µM) | CCC(=S)NC[C@H]1CN(c2ccc(N3CCN(C(=O)COc4ccc(CN5CCOCC5)cc4)CC3)c(F)c2)C(=O)O1 [Compound 17] |
| 4 (≈ 6.54 µM) | O=C(COc1ccc(CN2CCOCC2)cc1)N1CCN(c2ccc(N3C[C@H](CNC(=S)C4CC4)OC3=O)cc2F)CC1 [Compound 18] |
| 16 (≈ 28.1 µM) | CC(=O)NC[C@H]1CN(c2ccc(N3CCN(C(=O)COc4ccc(CN5CCOCC5)cc4)CC3)c(F)c2)C(=O)O1 [Compound 19] |

What follows are molecules tested on E. Faecium (EFAE 12712) (assay: MIC, agar dilution). Conditions: Enterococcus faecium, E. Faecium 12712, overnight at 35° C.
Type: cell-based
Procedure: as §1, §2, §3

| MIC [µg/mL] | SMILES |
| --- | --- |
| 8 (≈ 15.2 µM) | CC(=O)NC[C@H]1CN(c2ccc(N3CCN(C(=O)COc4ccc(CN(C)C)cc4)CC3)c(F)c2)C(=O)O1 [Compound 14] |
| 2 (≈ 3.33 µM) | CCC(=S)NC[C@H]1CN(c2ccc(N3CCN(C(=O)COc4ccc(CN5CCOCC5)cc4)CC3)c(F)c2)C(=O)O1 [Compound 17] |
| 2 (≈ 3.27 µM) | O=C(COc1ccc(CN2CCOCC2)cc1)N1CCN(c2ccc(N3C[C@H](CNC(=S)C4CC4)OC3=O)cc2F)CC1 [Compound 18] |
| 8 (≈ 14 µM) | CC(=O)NC[C@H]1CN(c2ccc(N3CCN(C(=O)COc4ccc(CN5CCOCC5)cc4)CC3)c(F)c2)C(=O)O1 [Compound 19] |

What follows are molecules tested on S. pneumonia (SPNE 9912) (assay: MIC, agar dilution). Conditions: S. pneumonia 9912, overnight at 35° C.
Type: cell-based
Procedure: as §1, §2, §3

| MIC [µg/mL] | SMILES |
| --- | --- |
| 0.5 (≈ 0.948 µM) | CC(=O)NC[C@H]1CN(c2ccc(N3CCN(C(=O)COc4ccc(CN(C)C)cc4)CC3)c(F)c2)C(=O)O1 [Compound 14] |
| 0.25 (≈ 0.417 µM) | CCC(=S)NC[C@H]1CN(c2ccc(N3CCN(C(=O)COc4ccc(CN5CCOCC5)cc4)CC3)c(F)c2)C(=O)O1 [Compound 17] |
| 0.25 (≈ 0.409 µM) | O=C(COc1ccc(CN2CCOCC2)cc1)N1CCN(c2ccc(N3C[C@H](CNC(=S)C4CC4)OC3=O)cc2F)CC1 [Compound 18] |
| 1 (≈ 1.76 µM) | CC(=O)NC[C@H]1CN(c2ccc(N3CCN(C(=O)COc4ccc(CN5CCOCC5)cc4)CC3)c(F)c2)C(=O)O1 [Compound 19] |

The molecules below were run on M. catarrhalis (MCAT 30607) (assay: MIC, agar dilution). Conditions: Moraxella catarrhalis, M. catarrhalis 30607, overnight at 35° C.
Type: cell-based
Procedure: as §1, §2, §3

| MIC [µg/mL] | SMILES |
| --- | --- |
| 32 (≈ 60.7 µM) | CC(=O)NC[C@H]1CN(c2ccc(N3CCN(C(=O)COc4ccc(CN(C)C)cc4)CC3)c(F)c2)C(=O)O1 [Compound 14] |
| 4 (≈ 6.67 µM) | CCC(=S)NC[C@H]1CN(c2ccc(N3CCN(C(=O)COc4ccc(CN5CCOCC5)cc4)CC3)c(F)c2)C(=O)O1 [Compound 17] |
| 2 (≈ 3.27 µM) | O=C(COc1ccc(CN2CCOCC2)cc1)N1CCN(c2ccc(N3C[C@H](CNC(=S)C4CC4)OC3=O)cc2F)CC1 [Compound 18] |
| 64 (≈ 112 µM) | CC(=O)NC[C@H]1CN(c2ccc(N3CCN(C(=O)COc4ccc(CN5CCOCC5)cc4)CC3)c(F)c2)C(=O)O1 [Compound 19] |

The molecules below were run on S. epidermidis (SEPI 30593) (assay: MIC, agar dilution). Conditions: Staphylococcus epidermidis, S. epidermidis 30593, overnight at 35° C.
Type: cell-based
Procedure: as §1, §2, §3

| MIC [µg/mL] | SMILES |
| --- | --- |
| 8 (≈ 15.2 µM) | CC(=O)NC[C@H]1CN(c2ccc(N3CCN(C(=O)COc4ccc(CN(C)C)cc4)CC3)c(F)c2)C(=O)O1 [Compound 14] |
| 2 (≈ 3.33 µM) | CCC(=S)NC[C@H]1CN(c2ccc(N3CCN(C(=O)COc4ccc(CN5CCOCC5)cc4)CC3)c(F)c2)C(=O)O1 [Compound 17] |
| 1 (≈ 1.63 µM) | O=C(COc1ccc(CN2CCOCC2)cc1)N1CCN(c2ccc(N3C[C@H](CNC(=S)C4CC4)OC3=O)cc2F)CC1 [Compound 18] |
| 8 (≈ 14 µM) | CC(=O)NC[C@H]1CN(c2ccc(N3CCN(C(=O)COc4ccc(CN5CCOCC5)cc4)CC3)c(F)c2)C(=O)O1 [Compound 19] |
